Data as given in ChEMBL document CHEMBL1201862, “PubChem BioAssay data set” (2004).
Blank lines part the entries; values can stand above or below the molecule they belong to. Activity calls are given as the source filed them.

Key:
[1] = molecular target: T1, Corticotropin-releasing factor receptor 2/Corticotropin-releasing factor-binding protein (Homo sapiens, UniProt P24387+Q13324); assay: Dose Response confirmation of uHTS hits for small molecule antagonists of the CRF-binding protein and CRF-R2 receptor complex.; format: functional; details: read-out: IC50_Mean
T1 sequence (Q13324 whole entry): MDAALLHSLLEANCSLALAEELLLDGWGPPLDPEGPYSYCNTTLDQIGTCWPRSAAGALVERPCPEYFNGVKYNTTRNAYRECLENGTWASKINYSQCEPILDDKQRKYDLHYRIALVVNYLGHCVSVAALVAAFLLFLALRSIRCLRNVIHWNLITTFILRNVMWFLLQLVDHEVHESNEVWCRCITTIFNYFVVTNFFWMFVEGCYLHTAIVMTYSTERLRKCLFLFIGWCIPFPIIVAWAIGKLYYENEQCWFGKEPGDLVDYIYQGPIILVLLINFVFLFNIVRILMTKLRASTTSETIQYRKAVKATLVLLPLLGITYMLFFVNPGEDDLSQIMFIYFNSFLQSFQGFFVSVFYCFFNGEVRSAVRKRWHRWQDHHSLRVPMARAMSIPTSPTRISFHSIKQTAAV
T1 sequence (P24387 whole entry): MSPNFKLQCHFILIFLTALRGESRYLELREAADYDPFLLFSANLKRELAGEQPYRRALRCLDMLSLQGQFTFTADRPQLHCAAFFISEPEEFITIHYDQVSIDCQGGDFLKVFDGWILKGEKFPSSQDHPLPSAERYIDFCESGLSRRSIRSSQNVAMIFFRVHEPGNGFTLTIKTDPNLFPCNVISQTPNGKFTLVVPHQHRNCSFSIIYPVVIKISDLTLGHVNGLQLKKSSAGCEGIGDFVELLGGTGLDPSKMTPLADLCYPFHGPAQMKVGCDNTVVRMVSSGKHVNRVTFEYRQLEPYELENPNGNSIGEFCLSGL

[2] = molecular target: Voltage-dependent T-type calcium channel subunit alpha-1H (Homo sapiens, UniProt O95180); format: functional;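 note: channel activity triggered by adding a high calcium stimulation buffer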
[3] = molecular target: T1, Corticotropin-releasing factor receptor 2/Corticotropin-releasing factor-binding protein; assay: activators of CRF receptor 2 with binding protein – uHTS hits, confirmation (AID 602473); format: functional; details: read-out: EC50_Mean
[4] = molecular target: FAD-linked sulfhydryl oxidase ALR (Homo sapiens, UniProt P55789); assay: ALR-catalysed DTT oxidation blockers – biochemical, H2O2 detection, luminescence, cherry-pick, dose response (AID 493248)
[5] = molecular target: Melanin-concentrating hormone receptor 1 (Homo sapiens, UniProt Q99705); assay: Fluorescence-based counterscreen for antagonists of the G-protein coupled receptor 7 (GPR7): cell-based high throughput dose response assay to identify antagonists of the melanin-concentrating hormone receptor 1 (MCHR1).; format: functional
Cytochrome P450 3A4 = Cytochrome P450 3A4 (Homo sapiens, UniProt P08684); details: Potency;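 note: confirmatory qHTS run detecting inhibitors and substrates of CYP3A4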
Cytochrome P450 2C9 = Cytochrome P450 2C9 (Homo sapiens, UniProt P11712); details: Potency
[6] = molecular target: Eukaryotic translation initiation factor 4E (Mus musculus, UniProt P63073); assay: blockers of eIF4G binding by eIF4E – biochemical, TR-FRET, dose response (AID 855); format: functional;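 note: potency for disrupting eIF4E binding to eIF4GI seen as loss of FRET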
[7] = molecular target: T2, Carboxy-terminal domain RNA polymerase II polypeptide A small phosphatase 1 (Homo sapiens, UniProt Q9GZU7); assay: CTDSP1 inhibitors, concentration-response, biochemical, absorbance readout, ultra-high-throughput screen actives (AID 540297); format: functional
T2 sequence (Q9GZU7 whole entry): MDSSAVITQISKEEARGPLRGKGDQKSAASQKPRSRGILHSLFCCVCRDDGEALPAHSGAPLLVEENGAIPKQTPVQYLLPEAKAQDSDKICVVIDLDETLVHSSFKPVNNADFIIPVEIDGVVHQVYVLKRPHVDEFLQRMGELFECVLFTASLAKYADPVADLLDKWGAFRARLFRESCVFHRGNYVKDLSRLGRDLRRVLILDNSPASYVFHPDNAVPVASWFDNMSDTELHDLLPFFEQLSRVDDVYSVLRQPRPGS

[8] = molecular target: T3, Sentrin-specific protease 8 (Homo sapiens, UniProt Q96LD8); format: functional;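 note: luminescence read-out of SENP8 inhibition, dose-response confirmation following an ultra-high-throughput screen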
T3 sequence (Q96LD8 whole entry): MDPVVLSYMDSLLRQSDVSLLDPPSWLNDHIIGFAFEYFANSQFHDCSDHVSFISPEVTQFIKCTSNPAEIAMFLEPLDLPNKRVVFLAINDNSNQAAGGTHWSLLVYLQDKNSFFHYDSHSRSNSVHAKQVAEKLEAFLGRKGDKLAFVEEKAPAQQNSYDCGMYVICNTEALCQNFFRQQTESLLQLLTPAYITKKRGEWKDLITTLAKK

Caspase-3 = molecular target: T4, Caspase-3 (Homo sapiens, UniProt P42574); format: functional;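 note: Dose-response selectivity test against caspase-3 for candidate inhibitors of sentrin-specific proteases (SENPs)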
T4 sequence (P42574 whole entry): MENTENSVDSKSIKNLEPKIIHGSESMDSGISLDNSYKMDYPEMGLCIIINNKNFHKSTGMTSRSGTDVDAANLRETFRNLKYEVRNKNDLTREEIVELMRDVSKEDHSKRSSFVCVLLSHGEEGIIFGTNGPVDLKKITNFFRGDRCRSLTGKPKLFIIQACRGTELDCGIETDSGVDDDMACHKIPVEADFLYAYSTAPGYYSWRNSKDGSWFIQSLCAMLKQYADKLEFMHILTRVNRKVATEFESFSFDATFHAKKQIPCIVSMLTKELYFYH

[9] = molecular target: T5, Sentrin-specific protease 7 (Homo sapiens, UniProt Q9BQF6); format: functional;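 note: Luminescence-based dose-response confirmation of ultra-high-throughput screening hits, measuring inhibition of SENP7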
T5 sequence (Q9BQF6 whole entry): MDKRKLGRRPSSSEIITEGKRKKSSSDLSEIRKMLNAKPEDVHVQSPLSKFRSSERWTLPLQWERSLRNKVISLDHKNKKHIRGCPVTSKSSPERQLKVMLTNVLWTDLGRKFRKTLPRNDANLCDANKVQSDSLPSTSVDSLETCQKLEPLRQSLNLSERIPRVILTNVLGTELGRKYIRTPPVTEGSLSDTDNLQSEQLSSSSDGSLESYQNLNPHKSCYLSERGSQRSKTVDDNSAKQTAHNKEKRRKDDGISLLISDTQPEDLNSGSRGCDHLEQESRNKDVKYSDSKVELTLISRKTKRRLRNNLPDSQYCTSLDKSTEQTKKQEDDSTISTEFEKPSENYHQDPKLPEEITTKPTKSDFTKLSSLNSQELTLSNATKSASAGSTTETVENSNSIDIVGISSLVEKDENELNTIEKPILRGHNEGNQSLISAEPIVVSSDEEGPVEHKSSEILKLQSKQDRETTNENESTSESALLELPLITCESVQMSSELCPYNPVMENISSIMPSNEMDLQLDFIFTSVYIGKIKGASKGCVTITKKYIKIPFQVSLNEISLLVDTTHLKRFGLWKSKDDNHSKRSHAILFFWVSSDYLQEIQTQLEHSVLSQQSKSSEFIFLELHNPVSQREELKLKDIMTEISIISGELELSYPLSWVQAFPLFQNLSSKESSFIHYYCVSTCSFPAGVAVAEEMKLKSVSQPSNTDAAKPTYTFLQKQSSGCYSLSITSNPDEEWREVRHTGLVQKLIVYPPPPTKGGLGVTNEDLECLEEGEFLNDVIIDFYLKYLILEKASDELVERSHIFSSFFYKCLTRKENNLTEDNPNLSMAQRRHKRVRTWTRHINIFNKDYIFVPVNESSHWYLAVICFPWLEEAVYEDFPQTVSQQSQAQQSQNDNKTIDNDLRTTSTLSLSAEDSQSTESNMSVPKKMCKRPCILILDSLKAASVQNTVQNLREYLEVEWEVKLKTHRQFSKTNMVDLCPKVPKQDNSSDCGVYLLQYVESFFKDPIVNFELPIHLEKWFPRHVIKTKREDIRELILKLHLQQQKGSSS

[10] = molecular target: T6, Sentrin-specific protease 6 (Homo sapiens, UniProt Q9GZR1); format: functional;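 note: Luminescence-based dose-response confirmatory assay of SENP6 inhibition, following up an ultra-high-throughput screen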
T6 sequence (Q9GZR1 whole entry): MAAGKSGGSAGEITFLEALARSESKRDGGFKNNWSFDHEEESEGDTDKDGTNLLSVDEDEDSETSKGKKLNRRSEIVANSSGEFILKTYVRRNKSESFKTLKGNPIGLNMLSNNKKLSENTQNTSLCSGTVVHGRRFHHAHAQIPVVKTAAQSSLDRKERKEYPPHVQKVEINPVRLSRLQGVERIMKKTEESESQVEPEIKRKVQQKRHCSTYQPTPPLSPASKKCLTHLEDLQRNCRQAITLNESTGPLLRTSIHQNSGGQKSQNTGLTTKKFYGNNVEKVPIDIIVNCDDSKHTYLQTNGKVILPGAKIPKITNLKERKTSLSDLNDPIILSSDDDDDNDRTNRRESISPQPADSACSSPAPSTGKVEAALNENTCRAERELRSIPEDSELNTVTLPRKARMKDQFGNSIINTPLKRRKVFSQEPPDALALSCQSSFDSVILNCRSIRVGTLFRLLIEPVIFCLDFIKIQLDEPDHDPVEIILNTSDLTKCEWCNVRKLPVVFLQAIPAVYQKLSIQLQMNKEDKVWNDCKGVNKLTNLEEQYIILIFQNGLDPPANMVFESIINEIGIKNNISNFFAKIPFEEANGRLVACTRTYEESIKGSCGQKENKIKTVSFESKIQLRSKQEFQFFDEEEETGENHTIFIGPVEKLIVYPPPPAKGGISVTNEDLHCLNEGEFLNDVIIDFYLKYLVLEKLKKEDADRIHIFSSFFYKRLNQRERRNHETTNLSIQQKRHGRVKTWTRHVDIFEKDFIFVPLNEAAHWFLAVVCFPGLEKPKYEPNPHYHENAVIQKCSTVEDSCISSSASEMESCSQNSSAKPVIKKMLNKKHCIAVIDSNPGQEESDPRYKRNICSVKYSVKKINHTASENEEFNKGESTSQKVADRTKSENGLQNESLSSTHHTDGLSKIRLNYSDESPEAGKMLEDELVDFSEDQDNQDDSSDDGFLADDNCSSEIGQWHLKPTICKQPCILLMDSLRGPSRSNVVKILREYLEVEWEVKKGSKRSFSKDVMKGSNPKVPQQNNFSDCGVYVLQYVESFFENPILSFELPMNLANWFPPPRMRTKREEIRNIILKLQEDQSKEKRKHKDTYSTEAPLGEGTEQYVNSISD

Chain of Voltage-dependent T-type calcium channel subunit alpha-1H (O95180 whole entry): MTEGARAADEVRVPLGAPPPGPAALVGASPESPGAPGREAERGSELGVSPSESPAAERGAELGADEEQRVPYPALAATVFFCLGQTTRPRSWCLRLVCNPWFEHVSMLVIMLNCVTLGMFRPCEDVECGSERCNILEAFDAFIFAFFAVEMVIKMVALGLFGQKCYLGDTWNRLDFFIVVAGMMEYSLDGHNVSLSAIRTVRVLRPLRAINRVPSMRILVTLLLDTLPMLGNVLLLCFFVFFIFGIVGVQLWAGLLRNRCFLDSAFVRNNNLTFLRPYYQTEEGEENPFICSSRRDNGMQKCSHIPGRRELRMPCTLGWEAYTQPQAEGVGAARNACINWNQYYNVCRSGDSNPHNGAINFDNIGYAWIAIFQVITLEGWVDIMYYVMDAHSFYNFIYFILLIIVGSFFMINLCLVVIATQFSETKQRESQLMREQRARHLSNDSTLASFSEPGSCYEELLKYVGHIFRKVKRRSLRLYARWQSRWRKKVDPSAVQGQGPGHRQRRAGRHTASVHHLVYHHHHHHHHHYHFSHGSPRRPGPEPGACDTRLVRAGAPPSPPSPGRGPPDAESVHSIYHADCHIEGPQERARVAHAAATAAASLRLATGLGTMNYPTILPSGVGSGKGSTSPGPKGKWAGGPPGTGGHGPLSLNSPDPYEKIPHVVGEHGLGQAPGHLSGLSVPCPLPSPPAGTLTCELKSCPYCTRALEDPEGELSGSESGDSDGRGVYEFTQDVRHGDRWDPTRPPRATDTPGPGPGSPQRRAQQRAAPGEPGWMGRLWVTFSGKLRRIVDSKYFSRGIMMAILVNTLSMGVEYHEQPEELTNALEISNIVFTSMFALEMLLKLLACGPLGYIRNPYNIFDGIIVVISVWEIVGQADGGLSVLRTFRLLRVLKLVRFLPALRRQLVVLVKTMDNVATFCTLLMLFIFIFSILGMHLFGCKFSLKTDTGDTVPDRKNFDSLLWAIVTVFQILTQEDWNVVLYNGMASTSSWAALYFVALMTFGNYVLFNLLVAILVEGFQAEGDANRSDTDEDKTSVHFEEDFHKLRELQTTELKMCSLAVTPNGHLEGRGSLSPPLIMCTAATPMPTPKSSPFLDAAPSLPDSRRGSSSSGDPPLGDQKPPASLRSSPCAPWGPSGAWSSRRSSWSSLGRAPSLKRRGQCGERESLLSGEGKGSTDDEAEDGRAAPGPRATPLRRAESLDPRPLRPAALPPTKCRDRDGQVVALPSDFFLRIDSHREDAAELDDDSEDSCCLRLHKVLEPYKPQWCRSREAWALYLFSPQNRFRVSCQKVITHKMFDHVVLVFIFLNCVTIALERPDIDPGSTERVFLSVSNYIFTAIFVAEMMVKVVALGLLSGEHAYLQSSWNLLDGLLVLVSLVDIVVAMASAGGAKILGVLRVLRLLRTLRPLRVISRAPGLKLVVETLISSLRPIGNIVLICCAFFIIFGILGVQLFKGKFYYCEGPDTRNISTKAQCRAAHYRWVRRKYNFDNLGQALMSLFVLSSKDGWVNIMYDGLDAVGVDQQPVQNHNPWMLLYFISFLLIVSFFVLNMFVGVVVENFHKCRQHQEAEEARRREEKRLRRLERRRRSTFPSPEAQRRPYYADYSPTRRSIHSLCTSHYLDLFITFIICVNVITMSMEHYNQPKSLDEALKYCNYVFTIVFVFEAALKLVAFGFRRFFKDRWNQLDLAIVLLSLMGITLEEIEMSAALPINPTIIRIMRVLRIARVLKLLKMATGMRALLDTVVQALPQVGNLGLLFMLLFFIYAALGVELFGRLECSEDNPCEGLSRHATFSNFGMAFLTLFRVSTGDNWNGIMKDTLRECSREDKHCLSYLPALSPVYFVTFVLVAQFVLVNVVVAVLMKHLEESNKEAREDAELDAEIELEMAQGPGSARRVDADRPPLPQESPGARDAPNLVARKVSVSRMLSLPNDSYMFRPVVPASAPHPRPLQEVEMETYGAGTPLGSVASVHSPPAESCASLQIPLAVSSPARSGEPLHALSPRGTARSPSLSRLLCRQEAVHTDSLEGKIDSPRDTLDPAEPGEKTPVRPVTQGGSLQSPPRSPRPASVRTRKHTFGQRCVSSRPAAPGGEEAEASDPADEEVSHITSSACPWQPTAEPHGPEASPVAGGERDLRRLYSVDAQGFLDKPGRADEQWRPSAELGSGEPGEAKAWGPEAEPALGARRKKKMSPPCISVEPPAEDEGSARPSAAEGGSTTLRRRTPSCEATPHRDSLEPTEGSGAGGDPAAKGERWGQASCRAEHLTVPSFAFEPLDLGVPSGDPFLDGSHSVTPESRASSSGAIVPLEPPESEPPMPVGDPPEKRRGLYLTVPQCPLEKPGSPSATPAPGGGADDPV
Chain of Cytochrome P450 2C9 (P11712 whole entry): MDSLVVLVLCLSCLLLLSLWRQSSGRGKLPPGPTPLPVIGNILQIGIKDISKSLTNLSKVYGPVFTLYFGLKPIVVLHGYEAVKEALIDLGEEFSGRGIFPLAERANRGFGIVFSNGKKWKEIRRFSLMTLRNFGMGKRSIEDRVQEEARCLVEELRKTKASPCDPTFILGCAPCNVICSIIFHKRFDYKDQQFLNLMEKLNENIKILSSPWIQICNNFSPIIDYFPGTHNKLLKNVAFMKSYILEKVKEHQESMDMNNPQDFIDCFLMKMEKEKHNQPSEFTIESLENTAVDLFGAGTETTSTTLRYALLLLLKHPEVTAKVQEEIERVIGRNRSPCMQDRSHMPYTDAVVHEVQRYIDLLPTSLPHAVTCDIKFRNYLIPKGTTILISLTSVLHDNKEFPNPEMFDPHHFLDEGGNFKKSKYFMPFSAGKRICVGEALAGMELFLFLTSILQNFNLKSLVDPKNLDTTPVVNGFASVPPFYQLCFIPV
Chain of Eukaryotic translation initiation factor 4E (P63073 whole entry, the tested form may be a part): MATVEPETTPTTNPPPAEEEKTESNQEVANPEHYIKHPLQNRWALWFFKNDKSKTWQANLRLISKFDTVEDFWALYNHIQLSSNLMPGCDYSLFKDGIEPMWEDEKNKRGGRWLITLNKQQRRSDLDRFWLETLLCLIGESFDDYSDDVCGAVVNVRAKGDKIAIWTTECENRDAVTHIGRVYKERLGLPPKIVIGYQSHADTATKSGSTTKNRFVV
Chain of FAD-linked sulfhydryl oxidase ALR (P55789 whole entry): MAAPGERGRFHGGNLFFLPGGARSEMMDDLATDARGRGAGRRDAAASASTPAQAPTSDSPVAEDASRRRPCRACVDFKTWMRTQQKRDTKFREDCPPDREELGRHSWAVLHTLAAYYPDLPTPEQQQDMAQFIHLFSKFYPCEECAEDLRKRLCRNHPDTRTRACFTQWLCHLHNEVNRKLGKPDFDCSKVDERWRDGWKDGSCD
Chain of Melanin-concentrating hormone receptor 1 (Q99705 whole entry): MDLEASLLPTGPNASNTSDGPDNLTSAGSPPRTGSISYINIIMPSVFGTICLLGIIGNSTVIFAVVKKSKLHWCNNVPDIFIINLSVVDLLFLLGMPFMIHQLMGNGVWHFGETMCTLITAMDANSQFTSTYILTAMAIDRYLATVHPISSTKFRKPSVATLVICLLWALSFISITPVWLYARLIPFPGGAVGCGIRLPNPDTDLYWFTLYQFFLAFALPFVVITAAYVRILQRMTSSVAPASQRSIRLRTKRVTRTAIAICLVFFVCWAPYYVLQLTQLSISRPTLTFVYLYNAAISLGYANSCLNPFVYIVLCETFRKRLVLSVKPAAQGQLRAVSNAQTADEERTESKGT
Chain of Cytochrome P450 3A4 (P08684 whole entry): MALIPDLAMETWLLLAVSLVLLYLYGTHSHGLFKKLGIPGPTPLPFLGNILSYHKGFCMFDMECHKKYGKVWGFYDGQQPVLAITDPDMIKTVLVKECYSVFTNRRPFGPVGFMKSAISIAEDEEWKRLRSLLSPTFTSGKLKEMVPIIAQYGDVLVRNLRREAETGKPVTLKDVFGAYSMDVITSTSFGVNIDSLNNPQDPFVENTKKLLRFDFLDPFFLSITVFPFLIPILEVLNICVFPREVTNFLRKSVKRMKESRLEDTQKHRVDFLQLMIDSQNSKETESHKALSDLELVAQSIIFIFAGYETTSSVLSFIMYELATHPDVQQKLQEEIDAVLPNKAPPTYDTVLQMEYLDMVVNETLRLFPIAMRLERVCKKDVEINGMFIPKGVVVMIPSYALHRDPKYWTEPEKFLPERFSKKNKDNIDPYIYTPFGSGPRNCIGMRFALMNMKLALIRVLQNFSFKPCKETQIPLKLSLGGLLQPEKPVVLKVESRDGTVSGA

IC50 [1]: > 47.1 µM (inactive) | EC50 [2]: 7.96 µM (active) | EC50 [3]: > 53 µM (inactive)
SMILES: Cc1ccccc1NC(=O)c1ccc(-c2ccc(Cl)cc2Cl)o1

IC50 [6]: 50 µM (inactive) | IC50 [7]: 4.16 µM (active)
SMILES: Cc1ccc([N+](=O)[O-])cc1NC(=O)Cc1cccs1

IC50 (Caspase-3): 23.1 µM (active) | IC50 [9]: 3.93 µM (active) | AC50 (Cytochrome P450 2C9): 3.98 µM (inconclusive) | IC50 [10]: 6 µM (active)
SMILES: COc1ccc(/C=C/C(=O)c2ccccc2O)cc1
IC50 [8]: 10.6 µM (active)

Further lines, the molecule ahead of its results:

SMILES: FC(F)(F)c1cc(C(F)(F)F)c2ccc(N3CCN(c4ccc(Cl)cc4)CC3)nc2n1
EC50 [2]: 5.43 µM (active)

SMILES: CCn1c(CNc2ccc(Cl)cc2)nnc1SCCN1CCCCC1
AC50 [4]: 8.49 µM (active) | IC50 [5]: 21.5 µM (not active)

SMILES: Cc1nn(Cc2c(F)c(F)c(F)c(F)c2F)c(C)c1NC(=O)c1ccc(COc2ccc(F)cc2)o1
EC50 [2]: 4.88 µM (active)

SMILES: CC1CCC2C(=O)OC(CO)CN2C1c1ccc(Br)cc1 (stereo unspecified)
AC50 (Cytochrome P450 3A4): 3.16 µM (inconclusive) | AC50 (Cytochrome P450 2C9): 3.98 µM (inconclusive)
